Data: patent US20220354844A1, “METHODS OF TREATING METABOLIC DISEASES WITH FUSED BICYCLIC PYRAZOLES” (Belite Bio, Inc, priority 2017, published 2022)
“And” between values parts separate entries of the source, which are not always exact repeats. Identical values can stand only once. Like-named read-outs stand apart in the source and are kept apart here.

Tests used:
[1] = Compound 2 single dose rat PK study; type: in vivo, male Sprague Dawley rats; details: for Vd: read-out: Vss
Procedure: A pharmacokinetic study of Compound 2 following a single intravenous or oral dose administration to male Sprague Dawley rats was conducted, the results of which are found in Table 5 and FIGS. 21-24.

[2] = test system: Subjects with NAFLD or NASH; assay: Treatment of NAFLD and NASH in humans; type: in vivo, human; details: 50 or 100 mg/day for 6 months
Procedure: Subjects with NAFLD or NASH are treated with doses of either 50 or 100 mg/day of compound 1 or 2 for 6 months. Subjects are permitted their usual other medications (e.g. antidiabetic medications such as metformin or […]) but not glitazones, PPAR agonists, OCA, or similar medications. The subjects are assessed before the study, and at intervals during the study, such as every 4 weeks during the study and 4 weeks after the last dose of compound 1 or 2, for safety and pharmacodynamic evaluations.
MRIs of the subjects' livers are taken every 4 weeks during the study and 4 weeks after completion of compound 1 or 2 dosing, to determine hepatic fat; and liver biopsies are taken before the study (to establish the diagnosis) and 4 weeks after completion of compound 1 or 2 dosing. At each visit, after a 12-hour fast, blood is drawn and urine collected; and a standard metabolic panel, complete blood count, and standard urinalysis are performed. Blood is analyzed for total cholesterol, HDL-C, LDL-C, VLDL-C, TGs, apoB, and liver transaminases. The subjects also maintain health diaries, which are reviewed at each visit.

[3] = male, Sprague Dawley, plasma, iv, 2 mg/kg, single iv dose 2 mg/kg, Mean of the 3 rats
[4] = male, Sprague Dawley, plasma, iv, 2 mg/kg, single iv dose 2 mg/kg, individual rats
[5] = male, Sprague Dawley, plasma, po, 5 mg/kg, single po dose 5 mg/kg, Mean of the 3 rats
[6] = male, Sprague Dawley, plasma, po, 5 mg/kg, single po dose 5 mg/kg, individual rats
[7] = single iv dose 2 mg/kg, individual rats, 2 mg/kg
[8] = single po dose 5 mg/kg, individual rats, 5 mg/kg

AUC(0-inf) [1, 3]: 5.75 µg·h/mL
AUC(0-t) [1, 3]: 5.72 µg·h/mL
MRT inf [1, 3]: 2.3 h
MRT last [1, 3]: 2.2 h
clearance [1, 3]: 0.19 L/h/kg
half-life [1, 3]: 6.6 h
Tmax ([1]; male, Sprague Dawley, plasma, iv, 2 mg/kg, single iv dose 2 mg/kg, Mean of the 3 rats, first plasma collection time or observed time of highest plasma concentration): 0.22 h
Cmax ([1]; male, Sprague Dawley, plasma, iv, 2 mg/kg, single iv dose 2 mg/kg, Mean of the 3 rats, read-out: Cmax): 2.84 µg/mL
Vd [1, 3]: 0.436 L/kg
MRT inf [1, 4]: 2.1 h
MRT last [1, 4]: 2 h
half-life [1, 4]: 7.1 h
Cmax ([1]; male, Sprague Dawley, plasma, iv, 2 mg/kg, single iv dose 2 mg/kg, individual rats, read-out: Cmax): 2.93 µg/mL
Vd [1, 4]: 0.421 L/kg
AUC(0-inf) [1, 5]: 6.41 µg·h/mL
AUC(0-t) [1, 5]: 6.37 µg·h/mL
MRT inf [1, 5]: 4.8 h
MRT last [1, 5]: 4.5 h
Tmax [1, 5]: 0.5 h
half-life [1, 5]: 8 h
Cmax ([1]; male, Sprague Dawley, plasma, po, 5 mg/kg, single po dose 5 mg/kg, Mean of the 3 rats, read-out: Cmax): 1.6 µg/mL
AUC(0-inf) [1, 6]: 5.34 µg·h/mL
AUC(0-t) [1, 6]: 5.28 µg·h/mL
MRT inf [1, 6]: 5 h
MRT last [1, 6]: 4.5 h
Tmax [1, 6]: 0.5 h
half-life [1, 6]: 10.9 h
Cmax ([1]; male, Sprague Dawley, plasma, po, 5 mg/kg, single po dose 5 mg/kg, individual rats, read-out: Cmax): 1.53 µg/mL
Cl [1, 7]: 0.123 L/h/kg
Cmax [1, 7]: 3.275 µg/mL and 2.32 µg/mL
MRTinf [1, 7]: 2.6 h and 2.3 h
MRTlast [1, 7]: 2.5 h and 2.1 h
Vss [1, 7]: 0.315 L/kg and 0.572 L/kg
t1/2 [1, 7]: 7.0 h and 5.7 h
F ([1]; single po dose 5 mg/kg, Mean of the 3 rats): 44.6%
AUCLAST [1, 8]: 8.392 µg·h/mL and 5.435 µg·h/mL
AUCinf [1, 8]: 8434 hr · ng/m1 and 5452 hr · ng/m1
Cmax [1, 8]: 2.036 µg/mL and 1.24 µg/mL
F [1, 8]: 37.2% and 58.7% and 38.0%
MRTinf [1, 8]: 5.4 h and 4.1 h
MRTlast [1, 8]: 5.1 h and 4.0 h
t1/2 [1, 8]: 7.7 h and 5.5 h
SMILES: CC(=O)N1Cc2[nH]nc(C(=O)N3CCC(c4ccc(F)c(F)c4C(F)(F)F)CC3)c2C1 [Compound 2, 1-(3-(4-(3,4-difluoro-2-(trifluoromethyl)phenyl)piperidine-1-carbonyl)-4,6-dihydropyrrolo[3,4-c]pyrazol-5(1H)-yl)ethan-1-one]
AUCLAST [1, 7]: 5.039 µg·h/mL and 8.134 µg·h/mL and 3.994 µg·h/mL
improvement in their disease, as manifested by MRI and liver biopsy [2]: dose-related improvement
